According to patent US12357645B2, “Drug combination for treatment of gastric cancer” (priority 2023, dated 2025):

Tests used:
[1] = test system: advanced gastric cancer (AGC); experiment: Phase 1 study of minnelide prodrug alone or with paclitaxel in advanced gastric cancer (NCT 05566834): antitumor activity (RECIST v1.1; BOR, ORR, DCR, PFS, OS); format: in vivo, human
Protocol: Target Lesions. All measurable lesions up to a maximum of two lesions per organ and five lesions in total, representative of all involved organs, were identified as target lesions and recorded and measured at baseline. Target lesions were selected on the basis of their size (lesions with the longest diameter) and were representative of all involved organs, as well as their suitability for reproducible repeated measurements. All measurements were recorded using calipers if clinically assessed.
A sum of the diameters (longest for non-nodal lesions, short axis for nodal lesions) for all target lesions were calculated and reported as the baseline sum diameters, which were used as a reference to further characterize any objective tumor regression in the measurable dimension of the disease. If lymph nodes were included in the sum, only the short axis contributed.
Study design. This was an open-label, nonrandomized, phase 1 study conducted at Samsung Medical Center (SMC) in Korea. The study consisted of three regimens: Monotherapy with minnelide prodrug (Regimen A) and Combination therapy (minnelide prodrug plus paclitaxel), which was further divided into Regimen B and C.
Patients. Adult (≥20 years of age) Korean patients with histologically confirmed advanced-unresectable or metastatic gastric or gastro-esophageal junction adenocarcinoma, who had failed initial standard therapy or for whom no standard treatment was available, were eligible to participate in the study, regardless of HER2 status. Study treatment was discontinued if the patient experienced radiological progressive disease (PD) per Response Evaluation Criteria in Solid Tumors version 1.1 (RECIST v1.1) as assessed by the investigator, clinical progression as assessed by the investigator, or developed unacceptable toxicity.
Treatments. In Regimen A, 3-5 patients were treated at escalating doses of minnelide prodrug alone to determine the maximum tolerated dose (MTD). Minnelide prodrug was administered per oral (PO) once daily for 21 days followed by a 7-day rest period, starting at 1 mg, and escalating to 1.25 mg, and 1.5 mg. One cycle was equal to 28 days and minnelide prodrug was given with the patient in a fasting state. In Regimen B, the same dosing scheme was used for minnelide prodrug 0.25 mg PO in combination with paclitaxel intravenously on days 1, 8 and 15 (Q4W), starting at 60 mg/m^2, and escalating to 80 mg/m^2. In Regimen C, patients were treated with paclitaxel 80 mg/m^2 given intravenously on days 1, 8 and 15 (Q4W) in combination with minnelide prodrug PO once daily on days 1 to 5, 8 to 12 and 15 to 19, starting at 0.5 mg, escalating to 0.75 mg, 1.0 mg, and 1.25 mg. Dose-limiting toxicities (DLTs) were assessed during cycle 1. Treatment continued until disease progression, death, unacceptable toxicity, or patient or investigator decision to discontinue.
Outcomes. In this phase 1 study, the primary objective was to determine the maximum tolerated dose (MTD) and the dose limiting toxicities (DLT) of minnelide prodrug when given alone or in combination with paclitaxel and to establish recommended phase 2 dose (RP2D) of single-agent minnelide prodrug and in combination with paclitaxel every 4 weeks. Secondary objectives were to assess any evidence of antitumor activity of minnelide prodrug alone and in combination with paclitaxel by objective radiographic assessment. Antitumor activity was assessed by objective response rate (ORR). Disease control rate (DCR), duration of response (DOR), progression-free survival (PFS) and overall survival (OS) analysis were performed.
Assessment. Adverse events were graded using National Cancer Institute Common Terminology Criteria for Adverse Events (NCI CTCAE), version 4.03. Tumor assessments were performed after cycles 2, 4, 6, and 8, and every 4 cycles thereafter, or as indicated. Response was determined by investigators using RECIST criteria, version 1.1. […]

[2] = test system: pancreatic tumor cell lines; experiment: Viability of pancreatic tumor cell lines in vitro (activated with alkaline phosphatase); format: cell-based; conditions: activated by concurrent incubation with alkaline phosphatase
ovarian carcinoma cells = experiment: Proliferation of ovarian carcinoma cells in vitro (activated with alkaline phosphatase); format: cell-based; conditions: concentration-dependent, 50-200 nM
[3] = cited from earlier work
[4] = Regimen A (PO daily x21 d/28 d), n = 11
[5] = Regimen A, nine patients who completed at least 1 cycle with measurable lesions
[6] = Regimen A, Kaplan-Meier estimate

SMILES: CC(C)[C@]12O[C@H]1[C@@H]1O[C@]13[C@]1(O[C@H]1C[C@H]1C4=C(CC[C@@]13C)C(=O)OC4)[C@@H]2OCOP(=O)([O-])[O-].[Na+].[Na+] [minnelide prodrug, disodium; [(1S,2S,4S,5S,7S,8R,9R,11S, 13S)-1-methyl-17-oxo-7-propan-2-yl-3,6,10,16-tetraoxaheptacyclo [11.7.0.0^2,4.0^2,9.0^5,7.0^9,11.0^14,18]icos-14 (18)-en-8-yl]oxymethyl phosphate]
- Duration of OS, Range ([1]; Regimen A): 1.6-11.1 months
- Duration of PFS, Range ([1]; Regimen A): 0.7-5.4 months
- PFS events, n (%) ([1]; Regimen A): 9 n (%)
- BOR NE, number of patients [1, 4]: 2
- BOR PD, number of patients [1, 4]: 5
- BOR SD, number of patients [1, 4]: Four
- DCR, n (%) [1, 4]: 4 (36.4) n (%)
- ORR, n (%) [1, 4]: 0 n (%)
- BOR SD, number of patients ([1]; Regimen A (PO daily x21 d/28 d), n = 11, listed as Minnelide prodrug): 4
- BOR PD, share of patients [1, 5]: 55.6%
- BOR SD, share of patients [1, 5]: 44.4%
- DCR [1, 5]: 44.4%
- Duration of OS, Median [1, 6]: 5.3 months
- Duration of PFS, Median [1, 6]: 1.6 months
- duration of stable disease (one patient) ([1]; single agent, patient had failed four lines of therapy including immunotherapy): 5.4 months
- potency in decreasing viability [2]: as potent as triptolide
- proliferation (ovarian carcinoma cells): reduced the proliferation
- aqueous solubility [3]: greater aqueous solubility
